Experimental data as given in PMC7525492, “Microtiter plate-based antibody-competition assay to determine binding affinities and plasma/blood stability of CXCR4 ligands” (Scientific Reports, 2020).
“And” between values parts separate entries of the source, which are not always exact repeats. Equal values may be shown once. Where a name gives a salt, the structure may show the parent alone. Read-outs that look alike come from different tables or passages of the source. Bridge positions count the residues as written; N and C are the ends. Square brackets hold non-standard residues; d marks the D form. Ends that are not written are not given here. Peptide text beside a SMILES is read from it. I, II: the chains in the order shown. 2Nal = N[C@@H](Cc1ccc2ccccc2c1)C(=O)O; Lys(iPr) = CC(C)NCCCC[C@H](N)C(=O)O

Experiments:
SupT1 cells [1] = assay: cells; details: Homo sapiens, SUP-T1, 4 h, read-out: IC50 Migration
CXCR4-tropic HIV-1 [2] = assay: microbe, parasite or virus in culture; details: Human immunodeficiency virus 1, TZM-bl, 72 h, read-out: IC50 HIV-1
[3] = Functional stability in human plasma read out by 12G5 competition; format: in vitro ADME; details: for 12G5-competing activity after incubation in plasma / half-life at 20 µM / ability to block 12G5 binding after incubation in plasma / half-life t1/2 in plasma: 37 °C; for 12G5-competing activity after incubation in plasma: 24 h (AMD3100 also 48 h); for half-life at 20 µM: human, plasma, read-out: half-life t1/2 in plasma; for ability to block 12G5 binding after incubation in plasma: plasma of the individual donor, up to 24 h
Method: The t = 0 sample was immediately taken and stored at − 80 °C. Plasma/compound or blood/compound mixture was then transferred to 37 °C and shook at 350 rpm. At given time points samples were taken and stored at − 80 °C. For measuring the functional activity of the plasma/peptide samples, the mixtures were thawed and serially diluted in ice cold PBS (starting with 100% sample). 12G5-APC antibody competition was then performed as described before. Note, that during the competition process the samples are 1:1 diluted with the antibody and the highest plasma concentration on cells was 50%. For blood/peptide functional stability, samples were thawed and centrifuged at 14,000 rpm for 3 min at 4 °C to remove cells and debris. The supernatant was then serially diluted in PBS (starting with 100% sample) and 12G5-antibody competition assay was performed. […] Afterwards cells were washed again and analyzed for bound antibody.
(§1) Statistical analysis was performed in GraphPad Prism (version 8.3.0). IC50 and IC90 curves and the areas under the curves (AUC) were determined by nonlinear regression.

in vitro = in vitro ADME, human; details: for half-life at 20 µM: 20 µM in whole EDTA blood of an individual donor, 37 °C, read-out: half-life t1/2 in blood
Method: Compounds were 150-fold diluted in human plasma or whole human blood to reach final concentrations of 20 µM. The t = 0 sample was immediately taken and stored at − 80 °C. Plasma/compound or blood/compound mixture was then transferred to 37 °C and shook at 350 rpm. At given time points samples were taken and stored at − 80 °C. For measuring the functional activity of the plasma/peptide samples, the mixtures were thawed and serially diluted in ice cold PBS (starting with 100% sample). 12G5-APC antibody competition was then performed as described before. Note, that during the competition process the samples are 1:1 diluted with the antibody and the highest plasma concentration on cells was 50%. For blood/peptide functional stability, samples were thawed and centrifuged at 14,000 rpm for 3 min at 4 °C to remove cells and debris. The supernatant was then serially diluted in PBS (starting with 100% sample) and 12G5-antibody competition assay was performed. After the 2 h incubation, the cells were washed by centrifugation (1.300 rpm, 4 °C) and 50 µL of 1-step-Fix/Lyse solution (Thermo Fisher #00-5333-54) was added for 15 min at room temperature. Afterwards cells were washed again and analyzed for bound antibody.
Statistical analysis was performed in GraphPad Prism (version 8.3.0). IC50 and IC90 curves and the areas under the curves (AUC) were determined by nonlinear regression. For half-life calculations, the IC50 values for each time point as well as the AUCs were analyzed and normalized relative to t = 0. Activities were then determined ((IC50 (t = 0) / IC50 (t)) × 100) for each time point and half-lives determined by a One-Phase-Decay model.

[4] = administered AMD3100; cited from earlier work
CXCR4-tropic HIV-1 [5] = details: TZM-bl cells; for IC50: read-out: IC50 HIV-1
SupT1 cells [6] = details: read-out: IC50 Migration
CXCR4 = CXCR4 (Homo sapiens, UniProt P61073); assay: 12G5 antibody competition assay on SupT1 cells; format: binding; details: for IC50: APC-labelled 12G5, 2 h at 4 °C, mean ± SEM of 3 assays; for Ki: calculated from IC50 12G5 by Cheng-Prusoff, Kd of 12G5 151.5 pM
Method: Compounds were serially diluted in ice cold PBS and 12G5-APC antibody was diluted in cold PBS containing 1% FCS. […] Plates were incubated at 4 °C in the dark for 2 h. Afterwards cells were washed twice by centrifugation with PBS containing 1% FCS and fixed with 2% paraformaldehyde (PFA). During all pipetting steps, plates were kept cool by using a cooling pad. Antibody binding was analyzed by flow cytometry (FACS CytoFLEX; Beckman Coulter) by determination of the mean fluorescence intensity (MFI) of at least 5.000 cells (50.000 cells per well) or 1.000 cells (5.000 cells per well).
Ki calculation3 Ki=IC50/1+L/Kd
For Ki = inhibitory constant; IC50 = half maximal inhibition for 12G5 binding; [L] = 12G5 concentration; Kd = dissociation constant of 12G5.
as §1

[7] = target: C-X-C chemokine receptor type 4 (CXCR4) (human (endogenous in SupT1)) (UniProt P61073)
CXCR7 = details: cited from earlier work
CXCL12 migration = details: cited from earlier work
[8] = EPI-X4 sandwich ELISA; cited from earlier work
[9] = target: T1, C-X-C chemokine receptor type 4 (CXCR4) (human (endogenous in SupT1), UniProt P61073 1-352); assay: cell-based or functional assay
[10] = target: T1, C-X-C chemokine receptor type 4 (CXCR4); assay: flow cytometry on cells; competition with APC-labelled anti-CXCR4 antibody 12G5 (0.245 nM final) on SupT1 cells (5000 cells per well for Ki, or 50,000); compounds in PBS, antibody in PBS with 1% FCS; 2 h at 4 °C in the dark; Ki calculated from IC50 by the Cheng-Prusoff transformation with the Kd of 12G5 (151.5 pM); details: one partner purified
[11] = target: T2, C-X-C chemokine receptor type 4 (CXCR4) (human (endogenous in SupT1)), P61073
T2 chain: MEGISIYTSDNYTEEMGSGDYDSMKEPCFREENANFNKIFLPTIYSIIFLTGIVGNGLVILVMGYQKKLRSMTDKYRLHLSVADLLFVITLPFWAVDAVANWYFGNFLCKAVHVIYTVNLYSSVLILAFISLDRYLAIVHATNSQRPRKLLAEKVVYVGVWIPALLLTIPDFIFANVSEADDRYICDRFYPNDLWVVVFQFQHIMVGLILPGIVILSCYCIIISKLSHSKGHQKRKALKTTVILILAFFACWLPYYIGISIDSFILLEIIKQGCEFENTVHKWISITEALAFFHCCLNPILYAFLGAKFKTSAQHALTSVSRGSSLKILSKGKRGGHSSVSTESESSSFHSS

[12] = target: T2, C-X-C chemokine receptor type 4 (CXCR4) …; assay: flow cytometry on cells; competition with APC-labelled anti-CXCR4 antibody 12G5 (0.245 nM final) on SupT1 cells (5000 cells per well for Ki, or 50,000); compounds in PBS, antibody in PBS with 1% FCS; 2 h at 4 °C in the dark; Ki calculated from IC50 by the Cheng-Prusoff transformation with the Kd of 12G5 (151.5 pM)
[13] = 20 µM in plasma of an individual donor
[14] = 20 µM in pooled human plasma, Fig. 4a
[15] = 20 µM in pooled human plasma (6 donors), from IC50 relative to t = 0, one-phase decay
[16] = infection rate after 3 days, mean ± SEM of 3 assays

NCCCCN(Cc1nc2ccccc2[nH]1)[C@H]1CCCc2cccnc21 [AMD070]
IC50 (SupT1 cells [1]): 152 ± 3 nM | IC50 (CXCR4-tropic HIV-1 [2]): 23 ± 4 nM

c1cc(CN2CCCNCCNCCCNCC2)ccc1CN1CCCNCCNCCCNCC1 [AMD3100, AMD3100 octahydrochloride hydrate]
12G5-competing activity after incubation in plasma ([3]; 20 µM in pooled human plasma): remained fully active | half-life at 20 µM [3, 13]: > 24 h | half-life at 20 µM [3, 14]: > 48 h | half-life at 20 µM ([3]; 20 µM in pooled human plasma, Fig. S5a, no unit at the value, time axis in min, estimated by eye): > 24 h | ability to block 12G5 binding after incubation in plasma [3]: remained fully active | ability to block 12G5 binding after incubation in whole blood (in vitro): remained fully active | half-life at 20 µM (in vitro; human): > 24 h | IC50 (SupT1 cells [1]): 60 ± 13 nM | fraction bound to plasma proteins [4]: 58% | IC50 (CXCR4-tropic HIV-1 [2]): 36 ± 6 nM

CC[C@H](C)[C@H](N)C(=O)N[C@H](C(=O)N[C@@H](CCCNC(=N)N)C(=O)N[C@@H](Cc1c[nH]c2ccccc12)C(=O)N[C@@H](CO)C(=O)N[C@@H](CCCCN)C(=O)N[C@@H](CCCCN)C(=O)N[C@H](C(=O)N1CCC[C@H]1C(=O)N[C@@H](CSSC[C@H](NC(=O)[C@@H]1CCCN1C(=O)[C@@H](NC(=O)[C@H](CCCCN)NC(=O)[C@H](CCCCN)NC(=O)[C@H](CO)NC(=O)[C@H](Cc1c[nH]c2ccccc12)NC(=O)[C@H](CCCNC(=N)N)NC(=O)[C@@H](NC(=O)[C@@H](N)[C@@H](C)CC)C(C)C)C(C)C)C(=O)N[C@H](C(=O)N[C@@H](CO)C(=O)O)C(C)C)C(=O)N[C@H](C(=O)N[C@@H](CO)C(=O)O)C(C)C)C(C)C)C(C)C [EPI-X4 WSC02x2] (I: H-IVRWSKKVPCVS-OH / II: H-IVRWSKKVPCVS-OH; disulfide I:10-II:10; N-terminus and C-terminus assumed)
half-life at 20 µM [3, 13]: ~3 h | half-life at 20 µM [3, 15]: 3.22 h | half-life at 20 µM ([3]; human plasma, value in discussion): > 3 h | fold more stable than WSC02 in plasma ([3]; pooled human plasma, ratio of t1/2): 19 fold | half-life at 20 µM (in vitro; human): 1.33 h | stability in blood compared to plasma (in vitro; human, plasma): less stable in blood compared to plasma

CC1(C)CN2C(CSC(=NC3CCCCC3)NC3CCCCC3)=CSC2=N1 [IT1t]
half-life t1/2 in plasma [3, 13]: ca. 480 min | 12G5-competing activity after incubation in plasma ([3]; 20 µM in pooled human plasma): remained fully active | half-life t1/2 in plasma [3, 14]: < 24 h | ability to block 12G5 binding after incubation in plasma [3]: moderately impaired | ability to block 12G5 binding after incubation in whole blood (in vitro): moderately impaired | IC50 (CXCR4-tropic HIV-1 [5]; [16]): 5 ± 0.9 nM | IC50 (SupT1 cells [6]): 230 ± 20 nM

CC(C)NCCCC[C@H](NC(=O)[C@H]1CCC(=O)N[C@@H](Cc2ccccc2)C(=O)N[C@@H](Cc2ccc(O)cc2)C(=O)N[C@@H](CCCCNC(C)C)C(=O)N[C@H](CCCNC(=N)N)C(=O)N[C@@H](Cc2ccc3ccccc3c2)C(=O)NCC(=O)N1)C(N)=O [LY2510924] (FY[Lys(iPr)][dR][2Nal]G[dE][Lys(iPr)]-NH2; lactam N-7)
IC50 (CXCR4; SupT1 cells): 151 ± 78 nM | Ki (CXCR4): 58 ± 30 nM | IC50 (CXCR4-tropic HIV-1 [5]; [16]): 8 ± 0.8 nM | IC50 (SupT1 cells [6]; 100 ng/mL CXCL12, 4 h, mean ± SEM of 3 assays): 66 ± 8 nM

c1cnc(NCc2ccc(CNc3ncccn3)cc2)nc1 [MSX-122]
effect on 12G5 binding (CXCR4; SupT1 cells): did not interfere with 12G5 binding | IC50 (CXCR4; SupT1 cells): > 100000 nM | effect on CXCR4-tropic HIV-1 infection (CXCR4-tropic HIV-1 [5]): not affecting | IC50 (CXCR4-tropic HIV-1 [2]): > 10000 nM

EPI-X4 (Endogenous Peptide Inhibitor of CXCR4)
IC50 of inhibition of infection of TZM-bl reporter cells by CXCR4-tropic HIV-1 (NL4-3), β-galactosidase assay [7]: 31400 nM

LVRYTKKVPQVSTPTL [EPI-X4]
IC50 (CXCR4; SupT1 cells): 1780 ± 162 nM | Ki (CXCR4): 677 ± 62 nM | half-life at 20 µM [3, 15]: 0.383 h | IC50 (CXCR4-tropic HIV-1 [5]): 31000 nM | IC50 (CXCR4-tropic HIV-1 [5]; [16]): 31400 nM | CXCR7 binding (CXCR7): does not bind CXCR7 | IC50 to suppress CXCL12 migration (CXCL12 migration): median micromolar range | half-life in plasma [8]: 17 min and ~ 17 min

B1: EPI-X4 WSC02x2 (peptide)
chain: IVRWSKKVPCVS
modifications: also: homodimer via intermolecular disulfide, disulfide at 10, other end not in the chain
IC50 of inhibition of SupT1 cell migration towards CXCL12 (100 ng/mL, transwell); the pair antagonized is CXCL12 with CXCR4 [9]: 2670 nM | IC50 of inhibition of infection of TZM-bl reporter cells by CXCR4-tropic HIV-1 (NL4-3), β-galactosidase assay [9]: 254 nM | IC50 [10]: 182 nM | Ki [10]: 69 ± 12 nM

IVRWSKKVPCVS (modifications not checked) [EPI-X4 WSC02]
IC50 of inhibition of SupT1 cell migration towards CXCL12 (100 ng/mL, transwell); the pair antagonized is CXCL12 with CXCR4 [11]: 15800 nM | IC50 of inhibition of infection of TZM-bl reporter cells by CXCR4-tropic HIV-1 (NL4-3), β-galactosidase assay [11]: 257 nM | IC50 [12]: 290 nM | Ki [12]: 111 nM
